{
  "source": "patent US9290427B2",
  "about": "“Anti-invasive compounds” (Universiteit Gent, priority 2012, dated 2016)",
  "key": {"MCF-7/LucF5 cells": {"test_system": "MCF-7/LucF5 cells", "test": "MTT test, MCF-7/LucF5", "type": "cell-based, human", "experimental": "An MTT test provides an indication of cell viability, proliferation and activity through determination of the mitochondrial conversion of 3-(4,5-dimethylthiazol-2-yl)-2,5-diphenyltetrazolium bromide (MTT), a yellow salt, into formazan, a salt that precipitates under the form of blue crystals.\nIn concreto, 5,000 cells are seeded in a cup of a 96 well-plate, treated with the desired amount of the test substance, and incubated for a chosen period of time. Next, 40 μL of a filtered (0.2 μm) 5 mg·mL^−1 solution of MTT in PBS is added to the cup. After 2 h of incubation at 37° C. in the dark, all liquid is removed. The obtained formazan salts are dissolved in 200 μL of DMSO, whereupon optical density is measured at 490 nm.\nIn order to further validate the use of the MCF-7/LucF5 cells in our in vivo experiments, the effects of 4-fluoro-3′,4′,5′-trimethoxychalcone on this cell line in the MTT and SRB assays were determined as well (Van Hoorde L. et al., 1999)."}, "TR146 cells": {"test_system": "TR146 cells", "test": "SRB test, TR146", "type": "cell-based, human", "settings": "1 or 10 μmol·L−1, 24 h", "experimental": "The SRB assay is used to evaluate growth effects on cells, and measures the total protein content. In this test, 5,000 cells are seeded in a cup of a 96-well plate. Upon a 24 h-attachment period, cells are treated with a certain amount of the test molecule (dissolved in DMSO). After a pre-chosen incubation time, cells are fixed with 50 μL of 50% trichloroacetic acid (2° C., 1 h). Afterward, the plate is rinsed five times with tap water, and air dried overnight.\nNext, proteins are stained with 75 μL of a 0.4% solution of SRB in AcOH (30 min). Unbound SRB is subsequently removed by washing with a 1% solution of glacial AcOH, whereupon the plate is air dried. Then, bound SRB is redissolved in 100 μL of a 10 mmol·L^−1 tris(hydroxymethyl)aminomethane (Tris) buffer (pH=10.5), after which optical density is determined at 490 nm with a spectrophotometer.\nIn order to verify whether the antiproliferative effects of compound 49, witnessed in BLM and MCF-7/6 cells at high concentrations, were cell specific, additional SRB and MTT assays on a further five cell lines (HCT8-E11, TR146, FaDu, 3T3-L1 and CT5.3) were conducted (FIG. 8). The results for MCF-7/6 cells were added to facilitate comparison.\nThe CT5.3 cell line consists of human myofibroblasts which were isolated from a colon tumor (Van Hoorde et al., 1999). […]"}, "BLM cells": {"test_system": "BLM cells", "test": "Matrigel invasion assay", "type": "cell-based", "settings": "for Number of invasive BLM-cells found at the basolateral side of the filter: 24 h, samples 1 and 2", "from_the_text": "An interesting method to determine the invasive capacity of cells and the anti-invasive potential of different substances is the matrigel invastion assay. Matrigel can be considered to be a basal membrane and is obtained from mice EHS sarcomas (tumors having an abundant expression of extracellular matrix proteins). The primary component of a matrigel is laminin, further also including collagen IV, heparan, sulphate proteoglycans and growth factors. It is also important that matrix degrading enzymes and inhibitors are present.\nAt room temperature, matrigel polymerizes into a matrix which mimicks a basal membrane of breast cells. The behavior of cells towards a matrigel highly resembles the in vivo situation and therefore this test is acknowledged to be an appropriate approach to the study migration and invasion, and the role of ECM receptors and matrix degrading enzymes in these processes.\nIn particular for this example, test cells were placed on a matrigel layer in serum-free medium. Subsequently, said cells were allowed to invade into the matrigel layer upon which they move through a filter, and attach to the bottom of said filter. The migration of the cells is stimulated by the presence of conditioned medium, at the other side of the filter, which act as a chemoattractant for the cells.\n50 μl matrigel (+/−3 mg/ml serum-free DMEM) was applied in the apical compartment (upper chamber) of 24-well plate inserts having a pore size of 8 μm. After 1 h of polymerization (37° C.) 50.000 BLM cells (in 150 μl serum-free DMEM) were seeded and incubated with varying concentrations of compound 49 (0-100 μM). In the basolateral compartment (lower chamber), 700 μl conditioned medium, containing the same concentration of compound 49 as used in the apical compartment was applied as a chemo-attractant for the cells. The plates were incubated for 24 h at 37° C. and the matrigel and cells at the apical side were removed using wetted cotton swabs (PBSD-). The filters were washed twice on both sides with PBSD- and subsequently incubated for 10 min in ice-cold methanol to fix the cells. To quantify the number of migrated cells, the filters were incubated for 15 min with DAPI and subsequently washed 4×5 min with PBSD-. The filters were then mounted on coverslips and the number of migrated cells was determined for each concentration of compound 49 using a fluorescence microscope."}},
  "note": "“And” between values parts separate entries of the source, which are not always exact repeats. Equal entries are not always repeated.",
  "data": [
    {"smiles": "COc1cc(C(=O)/C=C/c2ccc(F)cc2)cc(OC)c1OC", "note": "[Compound 49, (2E)-3-(4-Fluorophenyl)-1-(3,4,5-trimethoxyphenyl)propenone]", "values": [
      {"measurement": "mitochondrial activity", "setting": "MCF-7/LucF5 cells; 0.1 μmol·L−1, 72 h (p=0.0196)", "value": "significant reduction"},
      {"measurement": "viability (mitochondrial activity)", "setting": "MCF-7/LucF5 cells; 0.1 μmol·L−1, 144 h", "value": "restoration of viability to the control level"},
      {"measurement": "mitochondrial activity", "setting": "MCF-7/LucF5 cells; 100 and 10 μmol·L−1, 72 and 144 h", "value": "significant reduction"},
      {"measurement": "reduction in mitochondrial activity", "setting": "MCF-7/LucF5 cells; elevated concentrations 10-100 μmol·L−1, summary", "value": "~50", "unit": "%"},
      {"measurement": "total protein content versus solvent control", "setting": "TR146 cells", "value": "no significant differences"},
      {"measurement": "reduction of the number of invasive cells", "setting": "BLM cells; 0.1 μM", "value": 80, "unit": "%"},
      {"measurement": "reduction of the number of invasive cells", "setting": "BLM cells; 1 μM", "value": 67, "unit": "%"},
      {"measurement": "Number of invasive BLM-cells found at the basolateral side of the filter", "setting": "BLM cells; 1 μM", "value": "282 and 160"},
      {"measurement": "reduction of the number of invasive cells", "setting": "BLM cells; 10 μM", "value": 93, "unit": "%"},
      {"measurement": "Number of invasive BLM-cells found at the basolateral side of the filter", "setting": "BLM cells; 10 μM", "value": "57 and 33"},
      {"measurement": "reduction of the number of invasive cells", "setting": "BLM cells; 100 μM", "value": 98, "unit": "%"}
    ]}
  ]
}
